Measured values from US20080207560A1, “Composition For External Use” (priority 2005, published 2008).

Test: Solubility in phosphate buffer (statement)
Assay type: physicochemical

solubility in phosphate buffer: sparingly soluble
Structure (SMILES): CC1=C(/C=C/C(C)=C/C=C/C(C)=C/C(=O)Oc2cc(C)c3c(c2)CC[C@@](C)(CCC[C@H](C)CCC[C@H](C)CCCC(C)C)O3)C(C)(C)CCC1 [d-δ-tocopheryl retinoate]
